Measurements reported in patent publication US5703070A, “Indole, indazole and benzisoxazole compounds” (Adir et Compagnie, priority 1995, dated 1997).
Where two headings read alike, the source gives them in different places.

How the values were obtained:
5-HT2A receptors = target: T1, 5-HT2A receptors (Rattus norvegicus, UniProt P14842); test: Conventional binding studies, receptor profile: 5-HT2A; details: for Ki: Receptor profile Ki, 5-HT2A; for D2 /5-HT2A: ratio of Ki values D2 / 5-HT2A
T1 construct: from tissue; host or cells: rat frontal cortex (own knowledge of the cited method)
Method: (§1) The interaction of these compounds with various receptors was determined by using conventional binding studies, such as those described by M. J. Millan et at. […] The affinities of the compounds are expressed in Ki.

5-HT2C receptors [1] = test: biochemical; format: binding; details: ratio of Ki values D2 / 5-HT2C
Method: as §1

5-HT1A receptors = 5-HT1A receptors (Rattus norvegicus, UniProt P19327); test: biochemical; format: binding; details: for D2 /5-HT1A: ratio of Ki values D2 / 5-HT1A
Method: as §1

D2 receptors = target: T2, D2 receptors (Rattus norvegicus, UniProt P61169); test: biochemical; format: binding
T2 construct: from tissue; host or cells: rat striatum (own knowledge of the cited method)
Method: as §1

5-HT2C receptors [2] = target: T3, 5-HT2C receptors (Sus scrofa, UniProt K7GSR7); test: biochemical; format: binding; details: Receptor profile Ki, 5-HT2C
T3 construct: from tissue; host or cells: pig choroid plexus (own knowledge of the cited method)
T3 sequence (K7GSR7 1-457): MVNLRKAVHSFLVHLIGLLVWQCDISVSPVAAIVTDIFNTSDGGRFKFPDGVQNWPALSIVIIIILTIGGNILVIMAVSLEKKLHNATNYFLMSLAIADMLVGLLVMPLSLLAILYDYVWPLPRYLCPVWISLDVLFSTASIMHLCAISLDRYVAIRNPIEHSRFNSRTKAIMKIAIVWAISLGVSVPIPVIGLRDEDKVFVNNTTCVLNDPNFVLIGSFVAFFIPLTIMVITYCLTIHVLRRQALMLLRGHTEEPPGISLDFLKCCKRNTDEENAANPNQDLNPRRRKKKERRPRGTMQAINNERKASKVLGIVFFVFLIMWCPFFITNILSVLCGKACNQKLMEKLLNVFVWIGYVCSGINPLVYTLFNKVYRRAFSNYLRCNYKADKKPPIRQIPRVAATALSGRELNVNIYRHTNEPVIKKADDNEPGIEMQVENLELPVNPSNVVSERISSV
Method: as §1

[3] = test system: mesolimbic dopaminergic pathways; test: Verticalization test with apomorphine in mice (antipsychotic properties); details: for ED50: Mus musculus, sc; for Verticalization (Apomorphine) ID50: mice
in vivo = details: rat, sc
[4] = test system: nigrostriatal dopaminergic transmission; test: Catalepsy in rats (extrapyramidal potential); details: for ED50 /ID50 Ratio: catalepsy ED50 (rats) / verticalization ID50 (mice), hydrochloride
[5] = test system: nigrostriatal dopaminergic transmission; details: background, literature; cited from earlier work
schizophrenia = details: cited from earlier work; for extrapyramidal syndrome: in vivo
[6] = read-out: Receptor profile Ki, 5-HT1A
[7] = read-out: Receptor profile Ki, D2
[8] = read-out: Verticalization (Apomorphine) ID50, mice, s.c. 30 min before test, apomorphine 0.75 mg/kg s.c.
[9] = s.c. 30 min before test, apomorphine 0.75 mg/kg s.c., hydrochloride
[10] = read-out: Verticalization (Apomorphine) ID50

T2 sequence (P61169 whole entry): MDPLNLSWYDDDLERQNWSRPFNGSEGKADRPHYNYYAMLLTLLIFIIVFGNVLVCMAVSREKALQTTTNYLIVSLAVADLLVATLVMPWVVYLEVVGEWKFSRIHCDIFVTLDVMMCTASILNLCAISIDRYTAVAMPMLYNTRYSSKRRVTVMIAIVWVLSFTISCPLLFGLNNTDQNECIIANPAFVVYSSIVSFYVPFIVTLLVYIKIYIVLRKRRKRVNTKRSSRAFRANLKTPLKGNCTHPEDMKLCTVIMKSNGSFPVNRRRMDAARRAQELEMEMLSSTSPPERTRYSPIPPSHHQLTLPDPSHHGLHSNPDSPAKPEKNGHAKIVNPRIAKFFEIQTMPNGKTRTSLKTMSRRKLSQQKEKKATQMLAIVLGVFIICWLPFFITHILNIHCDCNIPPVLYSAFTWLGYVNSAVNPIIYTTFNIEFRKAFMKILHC
5-HT1A receptors, sequence (P19327 whole entry): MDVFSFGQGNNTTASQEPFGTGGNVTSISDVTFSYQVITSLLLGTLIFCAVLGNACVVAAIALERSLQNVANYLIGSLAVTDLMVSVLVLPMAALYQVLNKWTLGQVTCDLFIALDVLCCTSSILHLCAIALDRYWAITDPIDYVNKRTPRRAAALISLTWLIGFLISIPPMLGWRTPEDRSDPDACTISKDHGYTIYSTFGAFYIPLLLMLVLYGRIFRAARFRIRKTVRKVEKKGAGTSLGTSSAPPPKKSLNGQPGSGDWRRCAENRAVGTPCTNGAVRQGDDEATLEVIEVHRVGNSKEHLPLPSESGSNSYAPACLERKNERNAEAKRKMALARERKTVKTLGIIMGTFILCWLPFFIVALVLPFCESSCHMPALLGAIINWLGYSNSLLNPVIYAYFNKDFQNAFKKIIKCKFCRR
T1 sequence (P14842 whole entry): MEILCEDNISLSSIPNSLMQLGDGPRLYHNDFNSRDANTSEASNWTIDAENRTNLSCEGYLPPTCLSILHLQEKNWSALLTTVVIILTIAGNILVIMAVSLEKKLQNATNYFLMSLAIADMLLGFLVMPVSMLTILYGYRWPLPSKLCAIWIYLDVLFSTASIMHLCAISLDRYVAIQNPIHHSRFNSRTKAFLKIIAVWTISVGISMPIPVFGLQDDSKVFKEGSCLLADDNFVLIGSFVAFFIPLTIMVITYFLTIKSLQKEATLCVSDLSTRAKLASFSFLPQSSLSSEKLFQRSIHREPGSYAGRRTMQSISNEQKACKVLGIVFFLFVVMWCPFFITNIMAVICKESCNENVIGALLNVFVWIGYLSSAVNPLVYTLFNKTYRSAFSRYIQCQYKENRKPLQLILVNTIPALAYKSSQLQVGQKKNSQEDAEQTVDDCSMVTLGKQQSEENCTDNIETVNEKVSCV

| Structure (SMILES) | Ki (5-HT2A receptors) [nM] | D2 /5-HT2A (5-HT2A receptors) | D2 /5-HT2C (5-HT2C receptors [1]) | D2 /5-HT1A (5-HT1A receptors) | Ki (5-HT1A receptors; [6]) [nM] | Ki (D2 receptors; [7]) [nM] | Ki (5-HT2C receptors [2]) [nM] | ED50 [3, 8] [mg/kg] | ED50 at 0.5 h (in vivo) [mg/kg] | selectivity ratio (in vivo) | further results |
| --- | --- | --- | --- | --- | --- | --- | --- | --- | --- | --- | --- |
| COc1ccc2c(c1)c(CCN1CCC(CC(=O)c3ccc(F)cc3)C1)cn2C.Cl (centres unmarked) [Ex. 2, 1-Methyl-3-{2-[3-(4-fluorobenzoylmethyl)pyrrolidin-1-yl]ethyl}-5-methoxyindole hydrochloride] | 1.3 | 101 | 8.3 | 0.9 | 141 | 132 | 16 | 1.25 | > 40 | > 32 | – |
| COc1ccc2[nH]cc(CCCN3CCC(CC(=O)c4ccc(F)cc4)C3)c2c1.Cl (centres unmarked) [Ex. 5, 3-{3-[3-(4-fluorobenzoylmethyl)pyrrolidin-1-yl]propyl}-5-methoxyindole hydrochloride] | 1.7 | – | – | – | 0.4 | 7.1 | 3.8 | – | – | – | D2 /5-HT2A (5-HT2A receptors; hydrochloride): 4.2; D2 /5-HT2C (5-HT2C receptors [1]; hydrochloride): 1.9; D2 /5-HT1A (5-HT1A receptors; hydrochloride): 17.8; Verticalization (Apomorphine) ID50 [3, 9]: 0.13 mg/kg/S.C.; ED50 /ID50 Ratio [4]: > 307; Induction of catalepsy ED50 ([4]; rats, s.c. 30 min before test, dose inducing catalepsy for mean 15 seconds): > 40.0 mg/kg/S.C. |
| COc1ccc2[nH]cc(CCCN3CCCC(C(=O)c4ccc(F)cc4)CC3)c2c1.Cl (centres unmarked) [Ex. 7, 3-{3-[4-(4-Fluorobenzoyl)perhydroazepin-1-yl]propyl}-5-methoxyindole hydrochloride] | 2.7 | 1.6 | 0.4 | 62 | 0.7 | 43.5 | 117 | 0.5 | > 40 | > 80 | – |
| COc1ccc2[nH]cc(CCCN3CCC(C(=O)c4ccc(F)cc4)CC3)c2c1.Cl [Ref. A, 3-{3-[4-(4-Fluorobenzoyl)piperidin-1-yl]propyl}-5-methoxyindole hydrochloride, reference compound] | 8.5 | 1.3 | 0.1 | 2 | 5.6 | 11 | 98 | 0.1 | 1.4 | 14 | – |
| CN1CCN(C2=Nc3cc(Cl)ccc3Nc3ccccc32)CC1 [Clozapine] | – | – | – | – | – | – | – | – | > 40 | – | cataleptogenic effect [5]: absence of cataleptogenic effect; toxicity (schizophrenia; general treatment of schizophrenic conditions): due to its toxicity, clozapine cannot be envisaged in the general treatment of schizophrenic conditions; extrapyramidal syndrome (schizophrenia): virtually no extrapyramidal syndrome; Verticalization (Apomorphine) ID50 ([3]; s.c. 30 min before test, apomorphine 0.75 mg/kg s.c.): 2.2 mg/kg/S.C. |
| COc1ccc2[nH]cc(CCN3CCC(CC(=O)c4ccc(F)cc4)C3)c2c1.Cl (centres unmarked) [Ex. 1, 3-{2-[3-(4-Fluorobenzoylmethyl)pyrrolidin-1-yl]ethyl}-5-methoxyindole hydrochloride] | 1.6 | 69 | 22 | 183 | – | – | 50 | – | > 40 | > 129 | Ki (5-HT1A receptors; Receptor profile Ki, 5-HT1A): 0.6 nM; Ki (D2 receptors): 110 nM; ED50 [3, 10]: 0.31 mg/kg |
| Cl.O=C(CC1CCN(CCCc2c[nH]c3ccc(F)cc23)C1)c1ccc(F)cc1 (centres unmarked) [Ex. 8, 3-{3-[3-(4-Fluorobenzoylmethyl)pyrrolidin-1-yl]propyl}-5-fluoroindole hydrochloride] | 6.6 | 1.4 | 0.5 | 0.8 | 12.3 | 9.5 | 19 | 0.5 | > 40 | > 80 | – |
| COc1ccc2[nH]cc(CCCN3CCC(CC(=O)c4ccc(F)cc4)C3)c2c1.Cl (racemic) [Ex. 3, 3-{3-[3-(4-Fluorobenzoylmethyl)pyrrolidin-1-yl]propyl}-5-methoxyindole hydrochloride] | 1 | 5.2 | 1.6 | 5.2 | 1 | 5.2 | 3.3 | 0.15 | > 40 | > 266 | – |
| COc1ccc2[nH]cc(CCCN3CCC(Cc4noc5cc(F)ccc45)C3)c2c1.Cl (centres unmarked) [Ex. 9, 6-Fluoro-3-{1-[3-(5-methoxyindol-3-yl)propyl]pyrrolidin-3-ylmethyl}-1,2-benzisoxazole hydrochloride] | 3.2 | 31 | 13 | 143 | 0.7 | 98 | 7.9 | 1 | > 40 | > 40 | – |
| COc1ccc2c(c1)c(CCCN1CCC(CC(=O)c3ccc(F)cc3)C1)cn2C.Cl (centres unmarked) [Ex. 6, 1-Methyl-3-{3-[3-(4-fluorobenzoylmethyl)pyrrolidin-1-yl]propyl}-5-methoxyindole hydrochloride] | 4.3 | 3.6 | 0.9 | 0.4 | 39 | 15.4 | 17 | – | – | – | – |
| O=C(CCCN1CCC(O)(c2ccc(Cl)cc2)CC1)c1ccc(F)cc1 [Haloperidol] | – | – | – | – | – | – | – | – | 0.14 | – | extrapyramidal syndrome (schizophrenia): cause an extrapyramidal syndrome of Parkinsonian type; treatment of productive symptoms (schizophrenia; such as fantasizing and hallucinations): fairly well; effectiveness with respect to deficiency symptoms (schizophrenia; such as social withdrawal): very low; ED50 [3, 10]: 0.01 mg/kg |
| COc1ccc2[nH]cc(CCCN3CCC(CC(=O)c4ccc(F)cc4)C3)c2c1.Cl (centres unmarked) [Ex. 4, 3-{3-[3-(4-fluorobenzoylmethyl)pyrrolidin-1-yl]propyl}-5-methoxyindole hydrochloride] | 1.2 | – | – | – | 1.1 | 6.3 | 4 | – | > 40 | – | D2 /5-HT2A (5-HT2A receptors; hydrochloride): 5.2; D2 /5-HT2C (5-HT2C receptors [1]; hydrochloride): 1.6; D2 /5-HT1A (5-HT1A receptors; hydrochloride): 5.7; Verticalization (Apomorphine) ID50 [3, 9]: 0.3 mg/kg/S.C.; ED50 /ID50 Ratio [4]: > 133 |
